Like-named read-outs stand apart in the source and are kept apart here.
Experiments:
[1] = Mouse tumor concentrations (human prostate cancer xenograft); assay type: in vivo, Nude mice; set-up: unit not given here; conditions: tumors harvested, LC/MS/MS
From the text: Nude mice were subjected to human prostate cancer xenograft procedures, and resulting tumors were allowed to grow for 16 days. […] Once the scheduled time course had passed, the mice were sacrificed. Tumors were harvested, homogenized, and analyzed by LC/MS/MS for tumor-drug concentration.

[2] = tested on: LNCaP prostate cancer cells; assay: WST-1 cytotoxicity assay, LNCaP; assay type: cell-based; conditions: Homo sapiens, 24 h treatment
Procedure: (§1) Prostate cancer cells were treated with enigmol or analogue for 24 h, and cytotoxicity was assessed by WST-1 assay. cLogPs were calculated with QuikProp on Maestro.

[3] = tested on: PC-3 prostate cancer cells; assay: WST-1 cytotoxicity assay, PC-3; assay type: cell-based; conditions: 24 h treatment
Procedure: as §1

P. knowlesi H strain = assay: [3H]-labeled hypoxanthine uptake assay, P. knowlesi; assay type: cell-based; conditions: Table 1, compounds dissolved in 70% ethanol, not BSA-conjugated; for IC50: Plasmodium knowlesi
From the text: (§2) The [^3H]-labeled hypoxanthine uptake method was utilized to assay the effectiveness of our sphingoid base analogs in vitro for their ability to inhibit the growth and replication of malaria parasites in RBCs. […] The simian malaria parasite P. knowlesi has also been recognized as a human pathogen of public health concern in South East Asia, and it can be cultured effectively in vitro. This species was therefore included to probe the potential of multi-species efficacy within this compound class. The data were generated with the known antimalarial drugs chloroquine and mefloquine as controls.
The H strain of P. knowlesi has been adapted to in vitro culture using Macaca mulatta (rhesus monkey) RBCs essentially as described in Kocken et al., Infect Immun 2002, 70 (2), 655-60 (the media was supplemented with 10% human AB serum).
(§3) Chloroquine (Sigma) and mefloquine (Sigma) were used as controls. Compounds in Table 1 were dissolved in 70% 200-proof pharmaceutical grade ethanol, and a working solution of 0.2 mg/mL was prepared using hypoxanthine- and gentamicin-free incomplete RPMI 1640 (Gibco). Compounds in Table 2 were dissolved in 200 proof pharmaceutical grade ethanol at a concentration of 50 μM and then conjugated to BSA (Sigma) as described.^5 A working solution of 0.2 mg/mL was prepared using hypoxanthine- and gentamicin-free incomplete RPMI 1640 (Gibco). Two compounds were tested per plate in triplicate starting at 0.2 mg/mL and diluted two-fold down to 0.019 μg/mL using hypoxanthine- and gentamicin-free RPMI.
(§4) Parasite inoculum was prepared by mixing parasitized blood, uninfected 0+RBCs (for P. falciparum strains) or rhesus RBCs (for P. knowlesi) and culture medium (deficient in hypoxanthine and gentamicin) to a final concentration of 1% parasitemia and 1% haematocrit. A negative control was prepared by diluting uninfected erythrocytes to 1% haematocrit in culture medium. [^3H]-labeled hypoxanthine was added at 24 h (for P. falciparum strains) or 12 h (P. knowlesi) and the culture was collected 48 h or 12 h later for P. falciparum or P. knowlesi, respectively. [^3H] uptake was measured by using a scintillation spectrophotometer (Wallac Oy 1450 MicroBeta reader).
(§5) Triplicate wells were used to calculate the IC50 for each compound using the software XLFit v5.2 using the sigmoidal model 601. Average and standard deviations were calculated using Microsoft Excel.

[4] = Mouse PK studies (plasma and RBC levels); assay type: in vivo; conditions: mice; for PK dose proportionality / plasma half-lives: p.o. 10 or 30 mg/kg single dose
Procedure: Enigmol (E) or N-Methyl-enigmol (NME) were dissolved as 10× stocks in ethanol, then diluted 1:10 in olive oil the day before dosing; dosing solutions were stored at room temperature overnight. Male mice, CD-1 or Swiss Webster (20 to 30 g), were dosed p.o. at either 10 or 30 mg/kg and 5 ml/kg (n=3/time point). For single dose studies with E and NME, bloods were sampled at 0.5, 1, 2, 4, 6, 8, 16 & 24 hrs. For the 5 day repeat dose study with E, samples were taken on day 5 at 0 (trough) 0.5, 1, 2, 4, 6, 8 & 24 hrs. Blood (˜0.3 ml) was obtained either from the submandibular vein using a 4 mm Small Animal Lancet (MEDIpoint), or by retro-orbital bleeding into 200 uL glass micropipettes (Drummond) under isoflurane anesthesia. Each mouse was sampled once and blood transferred immediately to 0.5 ml K EDTA or Li heparin microtainers (BD) in ice water. Tubes were centrifuged at 2000×g for 10 min in a refrigerated centrifuge to separate plasma from RBCs. The plasma supernatants and RBC pellets (when taken) were transferred into separate 1.5 mL Eppendorf tubes in ice water, then frozen on dry ice and stored at −80° C. prior to analysis by LC/MS/MS. Mouse plasma determinations of Enigmol and N-methylenigmol were done using a bioanalytical assay method consisting of a protein precipitation sample preparation step followed by analysis on an AB SCIEX QTRAP® 5500 LC/MS/MS System. The method employed an internal standard (ISTD) spiking technique with D17:0 sphinganine as the ISTD. The lower limit of quantitation (LLOQ) for the assay method was 10 ng/mL and the upper limit of quantitation (ULOQ) for the assay method was 1,000 ng/mL for both Enigmol and N-methylenigmol. Each bioanalytical run consisted of eight matrixes (mouse plasma) spiked calibration standards and six matrixes spiked quality control (QC) samples at three levels (30 ng/mL, 500 ng/mL, and 900 ng/mL) in duplicate along with unknown mouse study samples. […] Estimates of pharmacokinetic parameters from the single dose (10 mg/kg and 30 mg/kg PO) mouse studies were determined using WinNonlin® (Pharsight, Version 5.3).

[5] = tested on: P. falciparum chloroquine resistant (CQ-R) W2 strain; assay: [3H]-labeled hypoxanthine uptake assay, P. falciparum W2; assay type: cell-based; conditions: for IC50: Plasmodium falciparum; for IC50 W2: Table 1
From the text: as §2, with “class.” for “class. The data were generated with the known antimalarial drugs chloroquine and mefloquine as controls.”
(§6) Cryopreserved iRBCs were provided by Dr. John W. Barnwell from the Centers for Disease Control and Prevention and maintained in in vitro culture as described in Trager & Jensen, Science 1976, 193 (4254), 673-5.
as §3, with “Compounds” for “Chloroquine (Sigma) and mefloquine (Sigma) were used as controls. Compounds”
as §4, §5

[6] = tested on: P. falciparum chloroquine susceptible (CQ-S) D6 strain; assay: [3H]-labeled hypoxanthine uptake assay, P. falciparum D6; assay type: cell-based; conditions: for IC50: Plasmodium falciparum, read-out: IC50 D6; for IC50 D6: Table 1
From the text: as §2, with “class.” for “class. The data were generated with the known antimalarial drugs chloroquine and mefloquine as controls.”
as §6
as §3, with “Compounds” for “Chloroquine (Sigma) and mefloquine (Sigma) were used as controls. Compounds”
as §4, §5

[7] = tested on: P. falciparum W2 strain parasites; assay: Morphological changes and parasitemia upon incubation, Giemsa-stained thin blood smears; assay type: cell-based
Procedure: Upon preliminary examination, morphological changes were detected in the P. falciparum W2 strain parasites after incubation of the cultures with N-Methylenigmol (ESPD-507). The effect was evident between 28 h and 48 h of incubation, with a quantitatively high percentage of various aberrant or stunted forms of ring-stage and trophozoite-stage parasites found on Giemsa-stained thin blood smears (see black arrows in FIG. 2 at 28 h highlighting the presence of abundant ring-stage parasites and at 48 h, noting a vacuolated appearance of trophozoite-stage parasites). These findings can be contrasted with the normal growth, development, and maturation of the parasites without the drug.
By the 48 hour time point, the parasitemia increased from 1% to 5.8+/−0.5% with healthy appearing parasites in the control samples, as expected, while it remained at 1.3+/−0.3% and with aberrant parasite forms in the sample incubated with N-Methylenigmol (Table 2). The relative percentages of rings, trophozoites and schizonts in the cultures with and without the ESPD 507 compound were 41.9%, 39.2% and 18.9% versus 87.9%, 4.2% and 8.05, respectively.
Samples were removed every 4 h and thin blood smears were prepared, stained with modified Giemsa stain, and analyzed by light microscopy for morphological changes in growth and development. The modular incubator used was gassed and returned to 37° C. in less than 5 minutes to avoid delay in parasite growth.

sphingomyelin synthase = conditions: background section; read-out: IC50 sphingomyelin synthase activity in RBCs; cited from earlier work
[8] = W2, Table 1, compounds dissolved in 70% ethanol, not BSA-conjugated, read-out: IC50 W2
[9] = W2, Table 2, compounds conjugated to BSA, read-out: IC50 W2
[10] = D6, Table 1, compounds dissolved in 70% ethanol, not BSA-conjugated
[11] = D6, Table 2, compounds conjugated to BSA
[12] = compounds dissolved in 70% ethanol, not BSA-conjugated

With C[C@H](N)[C@@H](O)C[C@@H](O)CCCCCCCCCCCCC(F)(F)F [CF3-Enigmol, (2S,3S,5S)-2-amino-18,18,18-trifluorooctadecane-3,5-diol] the tumor-drug concentration ([1]; 3 mg/kg p.o. once daily) was 1147 and the tumor-drug concentration ([1]; 10 mg/kg p.o. once daily) was 9004.

Molecule CCCCCCCCCCCCC[C@H](O)C[C@H](O)[C@H](C)N [ESPD-0500, (2S,3S,5S)-2-aminooctadecane-3,5-diol] has an IC50 [2] of 13 µM, an IC50 [3] of 10 µM and an IC50 (P. knowlesi H strain) of 10.5 ± 0.38 µM. It also gave a tumor-drug concentration ([1]; 3 mg/kg p.o. once daily) of 317, a tumor-drug concentration ([1]; 10 mg/kg p.o. once daily) of 1565 and a Kp at 5 day ([4]; male, mouse, red blood cells (RBC) relative to plasma, po, 30 mg/kg, 30 mg/kg orally once per day, after 5th day of dosing, read-out: drug concentrations in RBCs relative to plasma levels) of ~3. The volumes of distribution [4] was “large”, the “plasma levels increase from accumulation” value ([4]; 30 mg/kg orally once per day, after 5th day of dosing) was “about 30%” and the PK dose proportionality [4] was “dose proportional”. The plasma half-lives [4] was “long”, the IC50 [5, 8] was 7.37 ± 1.5 µM and the IC50 [5, 9] was 9.2 ± 2 µM. It also gave an IC50 ([5]; W2, text b101, summary over W2 and D6 strains, read-out: IC50 / anti-malarial activity on both W2 and D6 strains) of 7 to 12 µM, an IC50 [6, 10] of 12.6 ± 2.4 µM and an IC50 [6, 11] of 5.3 ± 1 µM.

Molecule CCCCCCCCCCCCC[C@@H](O)C[C@H](O)[C@H](C)N [ESPD-0503] has an IC50 (P. knowlesi H strain) of 17.6 ± 1.8 µM, an IC50 [5, 8] of 8.17 ± 1.8 µM and an IC50 [6, 10] of 12.7 ± 1.2 µM.

In the case of CCCCCCCCCCCCC[C@H](O)C[C@@H](O)[C@H](C)N [ESPD-0505, (2S,3R,5S)-2-Aminooctadecane-3,5-diol], the IC50 (P. knowlesi H strain) is reported as 20.3 ± 2 µM, the IC50 [5, 8] is reported as 9.22 ± 1.6 µM and the IC50 [6, 10] is reported as 17.8 ± 1.1 µM.

With CCCCCCCCCCCCC[C@H](O)C[C@H](O)[C@H](C)NC(C)=O [ESPD-0506, N-((2S,3S,5S)-3,5-dihydroxyoctadecan-2-yl)acetamide] the IC50 (P. knowlesi H strain) was > 58 µM, the “IC50 P. knowlesi” value (P. knowlesi H strain) was “no activity” and the IC50 [5, 8] was 13.1 ± 3.7 µM. For the same molecule, the “IC50 W2” value [5, 12] was “no activity”, the IC50 [6, 10] was 11.1 ± 0.5 µM and the “IC50 D6” value [6, 12] was “no activity”.

In the case of CCCCCCCCCCCCC[C@H](O)C[C@H](O)[C@H](C)NC [ESPD-0507, N-Methylenigmol], the parasitemia ([7]; 48 hour time point, start 1%, compound at 546.94 ng/mL) is reported as 1.3+/−0.3%, the “relative percentage of rings” value ([7]; culture with compound, 48 h) is reported as 41.9% and the “relative percentage of schizonts” value ([7]; culture with compound, 48 h) is reported as 18.9%. For the same molecule, the “relative percentage of trophozoites” value ([7]; culture with compound, 48 h) was 39.2%, the IC50 (P. knowlesi H strain) was 1.72 ± 0.01 µM and the volumes of distribution [4] was “large”. The PK dose proportionality [4] was “dose proportional”, the plasma half-lives [4] was “long” and the IC50 [5, 8] was 1.58 ± 0.13 µM. For the same molecule, the IC50 [5, 9] was 0.9 ± 0.35 µM, the IC50 ([5]; W2, text b183, 546.94 ng/mL used for the morphology study, W2, read-out: IC50) was 1.73 µM and the IC50 [6, 10] was 4.7 ± 0.1 µM. For the same molecule, the IC50 [6, 11] was 1.7 ± 1 µM.

In the case of CCCCCCCCCCCCC[C@H](O)C[C@H](O)[C@H](C)N(C)C [ESPD-0513, (2S,3S,5S)-2-(dimethylamino)octadecane-3,5-diol], the IC50 (P. knowlesi H strain) is reported as 6.83 ± 0.09 µM, the IC50 [5, 8] is reported as 4.42 ± 1.1 µM and the IC50 [6, 10] is reported as 7 ± 0.6 µM.

For CCCCCCCCCCCCCCCC(=O)N[C@@H](C)[C@@H](O)C[C@@H](O)CCCCCCCCCCCCC [ESPD-0514, N-((2S,3S,5S)-3,5-dihydroxyoctadecan-2-yl)palmitamide], the IC50 (P. knowlesi H strain) was > 37 µM, the “IC50 P. knowlesi” value (P. knowlesi H strain) was “no activity” and the IC50 [5, 8] was > 37 µM. For the same molecule, the “IC50 W2” value [5, 12] was “no activity”, the IC50 [6, 10] was > 37 µM and the “IC50 D6” value [6, 12] was “no activity”.

With CCCCCCCCCCCCC[C@H](O)C[C@H](O)[C@@H]1CCCN1 [ESPD-0522, (1S,3S)-1-((S)-pyrrolidin-2-yl)hexadecane-1,3-diol] the IC50 (P. knowlesi H strain) was 6.25 ± 0.27 µM, the IC50 [5, 8] was 4.39 ± 1.5 µM and the IC50 [6, 10] was 9.7 ± 1 µM.

CCCCCCCCCCCCC[C@H](O)CC(=O)C(C)(C)N [ESPD-0562, (S)-2-amino-5-hydroxy-2-methyloctadecan-3-one] showed a melting point of 31 to 33 °C, an IC50 [5, 9] of 2.6 ± 1.5 µM and an IC50 [6, 11] of 2.5 ± 0.1 µM.

With OC(c1cc(C(F)(F)F)nc2c(C(F)(F)F)cccc12)C1CCCCN1 (stereo not drawn) [Mefloquine, reference compound] the IC50 (P. knowlesi H strain) was 0.04 µM and the IC50 [5, 9] was 0.004 µM.

For CCCCCCCCCCCCCCCC(=O)NC(CN1CCOCC1)C(O)c1ccccc1 (stereo not drawn) [threo-PPMP, phenyl-2-palmitoylamino-3-morpholino-1-propanol], the IC50 (sphingomyelin synthase) is listed as 0.85 µM.
